# Measured values published in patent US4824937A, “Synthetic natriuretic peptides” (501 Advanced Peptide Development, Ltd., priority 1986, dated 1989).
# Ends that are not written are not given here.
# Tested on: male normotensive Sprague-Dawley rats
# Test: Effects upon electrolyte excretion (Na+, K+, Cl- in urine) after i.v. bolus in anesthetized rats
# Type: in vivo, rat
# Conditions: 3.5 mcg/kg i.v. bolus, pooled urine of 8 rats
# Experimental: The diuretic activities of the synthetic natriuretic peptides (SNP) of this invention and their effects upon electrolyte excretion are determined in male normotensive Sprague-Dawley rats. The animals are anesthetized with sodium pentobarbital (55 mg/kg), the femoral vein is cannulated for injection of the test compound and for infusion of Ringer's solution, the bladder is cannulated for urine collection, and the trachea is cannulated to ensure a clean airway. The animals are infused with Ringer's solution at a rate of 1.2 ml/20 min. for 20 minutes, the infusion rate is then decreased to 1.2 ml/hour for a further 20 minutes, and urine collections are started at the end of that period. Three 10-minute collections are taken as control samples, and at the end of the third 10-minute period the SNP to be tested is injected as a bolus over 30 seconds into the femoral vein. Infusion of Ringer's solution at 1.2 ml/hour is continued for the duration of the experiment, and urine samples are collected every 10 minutes over 4 hours, their respective volumes are determined, and the concentrations of Na^+, Cl^-, and K^+ are measured using a NovaBiomedical electrolyte analyzer. The above determinations are done on samples pooled from all animals in a given experiment, and urine flow is calculated as ml/min./kg body weight while electrolyte concentrations are calculated as mmol/l/gm kidney tissue.
# Details of the assay method are described above, and it remains only to be stated that 8 male normotensive Sprague-Dawley rats are used in each group. […] Urine flow then decreases sharply and is at control volumes at about 40 minutes where it remains until about 140 minutes.
substance,measurement,setting,value
"BG-3009: known ANP composed of 28 amino acid residues, identical with the ANP described by Flynn et al. (SLRRSSCFGGRIDRIGAQSGLGCNSFRY; not fully specified; ends and bridges not checked; UniProt P01161 123-150, looked up)",ELECTROLYTE EXCRETION Cl^-,80 min after injection,13.0 mmol/l./gm. kidney tissue
same,ELECTROLYTE EXCRETION K^+,80 min after injection,7.9 mmol/l./gm. kidney tissue
same,ELECTROLYTE EXCRETION Na^+,80 min after injection,6.5 mmol/l./gm. kidney tissue
same,ELECTROLYTE EXCRETION Cl^-,90 min after injection,13.3 mmol/l./gm. kidney tissue
same,ELECTROLYTE EXCRETION K^+,90 min after injection,8.0 mmol/l./gm. kidney tissue
same,ELECTROLYTE EXCRETION Na^+,90 min after injection,6.4 mmol/l./gm. kidney tissue
same,ELECTROLYTE EXCRETION Cl^-,100 min after injection,13.3 mmol/l./gm. kidney tissue
same,ELECTROLYTE EXCRETION K^+,100 min after injection,8.2 mmol/l./gm. kidney tissue
same,ELECTROLYTE EXCRETION Na^+,100 min after injection,6.3 mmol/l./gm. kidney tissue
same,ELECTROLYTE EXCRETION Cl^-,110 min after injection,13.1 mmol/l./gm. kidney tissue
same,ELECTROLYTE EXCRETION K^+,110 min after injection,8.2 mmol/l./gm. kidney tissue
same,ELECTROLYTE EXCRETION Na^+,110 min after injection,6.5 mmol/l./gm. kidney tissue
same,ELECTROLYTE EXCRETION Cl^-,120 min after injection,13.7 mmol/l./gm. kidney tissue
same,ELECTROLYTE EXCRETION K^+,120 min after injection,8.5 mmol/l./gm. kidney tissue
same,ELECTROLYTE EXCRETION Na^+,120 min after injection,6.7 mmol/l./gm. kidney tissue
same,ELECTROLYTE EXCRETION Cl^-,130 min after injection,13.6 mmol/l./gm. kidney tissue
same,ELECTROLYTE EXCRETION K^+,130 min after injection,8.6 mmol/l./gm. kidney tissue
same,ELECTROLYTE EXCRETION Na^+,130 min after injection,6.6 mmol/l./gm. kidney tissue
same,ELECTROLYTE EXCRETION Cl^-,140 min after injection,14.8 mmol/l./gm. kidney tissue
same,ELECTROLYTE EXCRETION K^+,140 min after injection,9.0 mmol/l./gm. kidney tissue
same,ELECTROLYTE EXCRETION Na^+,140 min after injection,7.0 mmol/l./gm. kidney tissue
same,ELECTROLYTE EXCRETION Cl^-,150 min after injection,15.2 mmol/l./gm. kidney tissue
same,ELECTROLYTE EXCRETION K^+,150 min after injection,9.4 mmol/l./gm. kidney tissue
same,ELECTROLYTE EXCRETION Na^+,150 min after injection,7.3 mmol/l./gm. kidney tissue
same,ELECTROLYTE EXCRETION Cl^-,160 min after injection,14.2 mmol/l./gm. kidney tissue
same,ELECTROLYTE EXCRETION K^+,160 min after injection,9.4 mmol/l./gm. kidney tissue
same,ELECTROLYTE EXCRETION Na^+,160 min after injection,7.4 mmol/l./gm. kidney tissue
same,ELECTROLYTE EXCRETION Cl^-,170 min after injection,14.4 mmol/l./gm. kidney tissue
same,ELECTROLYTE EXCRETION K^+,170 min after injection,9.2 mmol/l./gm. kidney tissue
same,ELECTROLYTE EXCRETION Na^+,170 min after injection,7.7 mmol/l./gm. kidney tissue
same,ELECTROLYTE EXCRETION Cl^-,180 min after injection,14.8 mmol/l./gm. kidney tissue
same,ELECTROLYTE EXCRETION K^+,180 min after injection,9.1 mmol/l./gm. kidney tissue
same,ELECTROLYTE EXCRETION Na^+,180 min after injection,8.3 mmol/l./gm. kidney tissue
same,ELECTROLYTE EXCRETION Cl^-,190 min after injection,14.4 mmol/l./gm. kidney tissue
same,ELECTROLYTE EXCRETION K^+,190 min after injection,8.7 mmol/l./gm. kidney tissue
same,ELECTROLYTE EXCRETION Na^+,190 min after injection,8.7 mmol/l./gm. kidney tissue
same,ELECTROLYTE EXCRETION Cl^-,200 min after injection,14.7 mmol/l./gm. kidney tissue
same,ELECTROLYTE EXCRETION K^+,200 min after injection,8.5 mmol/l./gm. kidney tissue
same,ELECTROLYTE EXCRETION Na^+,200 min after injection,9.2 mmol/l./gm. kidney tissue
same,ELECTROLYTE EXCRETION Cl^-,210 min after injection,15.0 mmol/l./gm. kidney tissue
same,ELECTROLYTE EXCRETION K^+,210 min after injection,8.4 mmol/l./gm. kidney tissue
same,ELECTROLYTE EXCRETION Na^+,210 min after injection,9.6 mmol/l./gm. kidney tissue
same,ELECTROLYTE EXCRETION Cl^-,220 min after injection,15.3 mmol/l./gm. kidney tissue
same,ELECTROLYTE EXCRETION K^+,220 min after injection,8.3 mmol/l./gm. kidney tissue
same,ELECTROLYTE EXCRETION Na^+,220 min after injection,9.4 mmol/l./gm. kidney tissue
same,ELECTROLYTE EXCRETION Cl^-,230 min after injection,14.8 mmol/l./gm. kidney tissue
same,ELECTROLYTE EXCRETION K^+,230 min after injection,8.3 mmol/l./gm. kidney tissue
same,ELECTROLYTE EXCRETION Na^+,230 min after injection,9.2 mmol/l./gm. kidney tissue
same,ELECTROLYTE EXCRETION Cl^-,240 min after injection,15.7 mmol/l./gm. kidney tissue
same,ELECTROLYTE EXCRETION K^+,240 min after injection,8.5 mmol/l./gm. kidney tissue
same,ELECTROLYTE EXCRETION Na^+,240 min after injection,9.2 mmol/l./gm. kidney tissue
